This note sets out measurements from patent US10065990B2, “Cyclic peptide compound, and preparation method, pharmaceutical composition and use thereof” (HANGZHOU GUANYU BIO-MEDICAL CO., LTD, priority 2013, dated 2018).

The GI50 is the concentration giving 50% growth inhibition.

Assay [1] addresses T1, HDAC7 (Homo sapiens, UniProt Q8WUI4).
T1 sequence (Q8WUI4 1-952): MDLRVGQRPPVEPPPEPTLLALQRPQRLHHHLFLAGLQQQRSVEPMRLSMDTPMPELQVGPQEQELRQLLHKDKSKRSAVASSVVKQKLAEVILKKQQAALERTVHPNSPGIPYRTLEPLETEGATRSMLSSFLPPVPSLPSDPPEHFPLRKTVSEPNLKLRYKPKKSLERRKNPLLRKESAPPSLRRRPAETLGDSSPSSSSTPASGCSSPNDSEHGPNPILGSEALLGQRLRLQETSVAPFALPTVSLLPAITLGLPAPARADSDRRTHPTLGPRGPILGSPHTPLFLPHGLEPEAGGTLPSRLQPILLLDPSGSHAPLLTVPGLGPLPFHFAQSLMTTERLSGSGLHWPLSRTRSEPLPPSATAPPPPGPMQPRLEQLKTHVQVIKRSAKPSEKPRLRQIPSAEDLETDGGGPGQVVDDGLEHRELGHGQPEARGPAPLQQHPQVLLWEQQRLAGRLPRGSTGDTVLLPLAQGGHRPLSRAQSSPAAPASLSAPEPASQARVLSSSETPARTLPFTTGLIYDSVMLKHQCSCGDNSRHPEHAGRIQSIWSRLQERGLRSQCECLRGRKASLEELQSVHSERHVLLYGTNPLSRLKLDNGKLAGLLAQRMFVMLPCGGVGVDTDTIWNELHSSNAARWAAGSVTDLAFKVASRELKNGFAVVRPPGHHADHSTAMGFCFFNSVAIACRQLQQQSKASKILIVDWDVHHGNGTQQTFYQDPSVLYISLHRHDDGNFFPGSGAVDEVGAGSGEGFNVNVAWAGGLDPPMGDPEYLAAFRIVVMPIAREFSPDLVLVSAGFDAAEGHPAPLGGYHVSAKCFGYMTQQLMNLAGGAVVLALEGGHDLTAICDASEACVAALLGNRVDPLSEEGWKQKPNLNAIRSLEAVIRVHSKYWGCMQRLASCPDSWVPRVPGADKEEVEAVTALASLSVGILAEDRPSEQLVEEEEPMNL
As to the kind of experiment: HDAC biochemical activity measurement (fluorescent substrate deacetylation).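 Further: fluorogenic deacetylation assay using acetyl-lysine substrate at 20 µM, enzyme and compound incubated 30 min at 37 °C, then developer added, fluorescence read at 360/460 nm.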 The following applies: HDAC7; 37° C. 30 minutes.

Assay [2] relates to KBM5-T315I (human chronic myelogenous leukemia). The assay can be described thus: MTT cancer cell growth inhibition. Format: cell-based. The settings on record: Homo sapiens, 72 h, MTT, 72 hours incubation, KBM5-T315I cells; read-out: GI50 KBM5-T315I. The gist of the method:
(§1)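 MTT viability, 570 nm, GI50. Cells 1500/well; compound 72 h at final 10^−5–10^−10 M in triplicate.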

In assay [3] the test system is K562 (human leukemia cells). The assay can be described thus: MTT cancer cell growth inhibition. The following applies: Homo sapiens, K562, 72 h, MTT, 72 hours incubation, K562 cells; read-out: GI50 K562. Format: cell-based. Put shortly:
as §1

For assay [4], the system named is MOLT-4 (human acute lymphoblastic leukemia cells). As to the kind of experiment: MTT cancer cell growth inhibition. Format: cell-based. The following applies: Homo sapiens, MOLT-4, 72 h, MTT, 72 hours incubation, read-out: GI50 Mol. The gist of the method: as §1
Assay [5] relates to HT1080 (human fibrosarcoma cells). The assay can be described thus: MTT cancer cell growth inhibition. Format: cell-based. The following applies: Homo sapiens, HT-1080, 72 h, MTT, 72 hours incubation, read-out: GI50 HT1. The gist of the method: as §1
For assay [6], the system named is KBM-5 (human chronic myelogenous leukemia). As to the kind of experiment: MTT cancer cell growth inhibition. Format: cell-based. The settings on record: Homo sapiens, KBM5, 72 h, MTT, 72 hours incubation, KBM-5 cells; read-out: GI50 KBM-5. The gist of the method: as §1
The test system of assay [7] is U937 (human leukemia cells). The assay can be described thus: MTT cancer cell growth inhibition. Format: cell-based. The following applies: Homo sapiens, U-937, 72 h, MTT, 72 hours incubation, read-out: GI50 U93. Put shortly: as §1
Assay [8] deals with SGC-7901 (human gastric cancer cells). The assay can be described thus: MTT cancer cell growth inhibition. Format: cell-based. The settings on record: Homo sapiens, SGC-7901, 72 h, MTT, 72 hours incubation, SGC-7901 cells; read-out: GI50 SGC-7901. Put shortly: as §1
Assay [9] has as its system HCC827 (human non-small cell lung cancer cells). As to the kind of experiment: MTT cancer cell growth inhibition. Format: cell-based. The settings on record: Homo sapiens, HCC827, 72 h, MTT, 72 hours incubation, HCC827 cells; read-out: GI50 HCC827. Put shortly: as §1
Assay [10] relates to lncap (prostate cancer cells). The assay can be described thus: MTT cancer cell growth inhibition. Format: cell-based. The following applies: Homo sapiens, LNCaP, 72 h, MTT, 72 hours incubation, read-out: GI50 lnca. Put shortly:
as §1

Assay [11] relates to H1975 (non-small cell lung adenocarcinoma). As to the kind of experiment: MTT cancer cell growth inhibition. Format: cell-based. The settings on record: Homo sapiens, NCI-H1975, 72 h, MTT, 72 hours incubation, H1975 cells; read-out: GI50 H1975. Put shortly:
as §1

The test system of assay [12] is A549 (human lung cancer cells). As to the kind of experiment: MTT cancer cell growth inhibition. Format: cell-based. The settings on record: Homo sapiens, A549, 72 h, MTT, 72 hours incubation, read-out: GI50 A54. The gist of the method: as §1
Assay [13] relates to MCF-7 (human breast cancer cells). The assay can be described thus: MTT cancer cell growth inhibition. Format: cell-based. The settings on record: Homo sapiens, MCF7, 72 h, 72 hours incubation, read-out: GI50 MCF. The gist of the method: as §1
For assay [14], the system named is MDA-MB-231 (breast cancer cells). The assay can be described thus: MTT cancer cell growth inhibition. Format: cell-based. The settings on record: Homo sapiens, MDA-MB-231, 72 h, read-out: GI50 MDA-MB-231, MTT, 72 hours incubation, MDA-MB-231 cells. Put shortly:
as §1

The subject of assay [15] is DU145 (human prostate cancer cells). As to the kind of experiment: MTT cancer cell growth inhibition. Format: cell-based. The settings on record: Homo sapiens, DU-145, 72 h, MTT, 72 hours incubation, read-out: GI50 Du1. Put shortly: as §1
Assay [16] concerns BGC-823 (human gastric cancer cells). As to the kind of experiment: MTT cancer cell growth inhibition. Format: cell-based. The following applies: Homo sapiens, BGC-823, 72 h, MTT, 72 hours incubation, read-out: GI50 BG. Put shortly:
as §1

In assay [17] the test system is Huh-7 (human hepatoma cells). As to the kind of experiment: MTT cancer cell growth inhibition. Format: cell-based. The following applies: Homo sapiens, Huh-7, 72 h, MTT, 72 hours incubation, Huh-7 cells; read-out: GI50 Huh-7. Put shortly: as §1
Assay [18] relates to PANC-1 (Pac-1, human pancreatic cancer cells). As to the kind of experiment: MTT cancer cell growth inhibition. Format: cell-based. The following applies: Homo sapiens, PANC-1, 72 h, MTT, 72 hours incubation, read-out: GI50 PAN. The gist of the method: as §1
For assay [19], the system named is Hela (human cervical cancer cells). As to the kind of experiment: MTT cancer cell growth inhibition. Format: cell-based. The following applies: Homo sapiens, HeLa, 72 h, MTT, 72 hours incubation, read-out: GI50 Hela. The gist of the method:
as §1

Assay [20] relates to Bel-7402 (human hepatoma cells). As to the kind of experiment: MTT cancer cell growth inhibition. Format: cell-based. The following applies: Homo sapiens, Bel-7402, 72 h, MTT, 72 hours incubation, Bel-7402 cells; read-out: GI50 Bel-7402. The gist of the method: as §1
For assay [21], the system named is N-87 (human gastric cancer cells). The assay can be described thus: MTT cancer cell growth inhibition. The settings on record: Homo sapiens, 72 h, MTT, 72 hours incubation, N-87 cells; read-out: GI50 N-87. Format: cell-based. The gist of the method:
as §1

Where two headings read alike, the source gives them in different places.

Consider `C/C=C1\NC(=O)c2ccc(SC)c(n2)CNC(=O)C[C@@H](/C=C/CCSC(=O)CCCC)OC(=O)[C@H](C(C)C)NC1=O` [Compound 158], for which, in assay [1], the “IC50 HDAC7” value was “no activity”. For the same compound, the GI50 came to 27 nM in [2]; 48 nM in assay [3]; 80 nM in [4] (MOLT-4 cells); 70 nM in assay [5] (HT1080 cells); 46 nM in [6]; 40 nM in assay [7] (U937 cells). In addition, the GI50 stood at 27 nM in assay [8]; 91 nM in [9]; 40 nM in assay [10] (lncap cells); 49 nM in assay [11]; 30 nM in assay [12] (A549 cells); 20 nM in assay [13] (MCF-7 cells). For the same compound, the 50% growth inhibitory concentration (GI50) was 46 nM in [14]; 60 nM in assay [15] (DU145 cells); 30 nM in assay [16] (BGC-823 cells); 41 nM in [17]; 20 nM in assay [18] (PANC-1 cells); 60 nM in assay [19] (Hela cells). Moreover, the GI50 in [20] worked out at 45 nM; in assay [21], 38 nM.
`C/C=C1\NC(=O)c2nc(ccc2SC)CNC(=O)C[C@@H](/C=C/CCSC(C)=O)OC(=O)[C@H](Cc2cccc3ccccc23)NC1=O` [Compound 198]: the “IC50 HDAC7” value in [1] is given as “no activity”. For the same compound, the 50% growth inhibitory concentration (GI50) was 43 nM in [2]; 79 nM in [3]; 20 nM in assay [4] (MOLT-4 cells); 20 nM in assay [5] (HT1080 cells); 99 nM in [6]; 50 nM in assay [7] (U937 cells). Further, the GI50 in assay [8] was 16 nM; in [9], 57 nM; in assay [10] (lncap cells) it was 90 nM; in [11], 31 nM; in assay [12] (A549 cells), 50 nM; in assay [13] (MCF-7 cells) it was 110 nM. Further, the GI50 in assay [14] was 45 nM; in assay [15] (DU145 cells) it was 50 nM; in [16] (BGC-823 cells), 70 nM; in [17], 47 nM; in assay [18] (PANC-1 cells), 30 nM; in [19] (Hela cells), 30 nM. Further, the GI50 in assay [20] turned out to be 63 nM; in [21], 38 nM.
Consider `C/C=C1\NC(=O)c2ccc(F)c(n2)CNC(=O)C[C@@H](/C=C/CCSC(=O)CCCCC)OC(=O)[C@H](C(C)C)NC1=O` [Example 38], for which, in assay [1], the “IC50 HDAC7” value is listed as “no activity”. Moreover, the GI50 amounted to 64 nM in assay [2]; 39 nM in assay [3]; 30 nM in assay [4]; 80 nM in [5]; 77 nM in [6]; 30 nM in assay [7]. For the same compound, the GI50 came to 34 nM in assay [8]; 84 nM in [9]; 30 nM in [10]; 34 nM in [11]; 30 nM in assay [12]; 60 nM in [13]. The GI50 in assay [14] turned out to be 33 nM; in assay [15], 30 nM; in [16], 40 nM; in assay [17], 33 nM; in [18], 80 nM; in assay [19], 70 nM. Further, the figures for the concentration for 50% growth inhibition (GI50) in [20] and in assay [21] were 84 nM and 49 nM, respectively.
In the case of `C/C=C1\NC(=O)c2ccc(F)c(n2)CNC(=O)C[C@@H](/C=C/CCS)OC(=O)[C@H](Cc2ccc(O)cc2)NC1=O` [Compound 130], in assay [1], the “IC50 HDAC7” value was “no activity”. Further, the concentration for 50% growth inhibition (GI50) is 11 nM in [2]; 28 nM in assay [3]; 30 nM in [4]; 100 nM in assay [5]; 23 nM in assay [6]; 30 nM in assay [7]. The GI50 in assay [8] amounted to 42 nM; in assay [9], 54 nM; in [10], 20 nM; in [11] it was 42 nM; in assay [12], 70 nM; in assay [13] it was 70 nM. Moreover, the GI50 in assay [14] turned out to be 38 nM; in assay [15], 30 nM; in assay [16], 50 nM; in assay [17], 41 nM; in assay [18], 40 nM; in assay [19], 130 nM. For the same compound, the results for the 50% growth inhibitory concentration (GI50) in assay [20] and in assay [21] were 32 nM and 58 nM, respectively.
